The values below come from US20110263664A1, “Inhibitors of PIM-1 Protein Kinases, Compositions and Methods for Treating Prostate Cancer” (MUSC FOUNDATION FOR RESEARCH DEVELOPMENT, priority 2007, published 2011).

Holding throughout (type): biochemical
For one experiment, the target named is PRAK (Homo sapiens, UniProt Q8IW41). In words: Kinase selectivity, Table 5: PRAK. Particulars: read-out: selectivity data (inhibition), PRAK.
For the next experiment, the target named is JAK2 (Homo sapiens, UniProt O60674). The experiment in a line: Kinase selectivity, Table 5: JAK2. Particulars: read-out: selectivity data (inhibition), JAK2.
Another experiment has as its target p38α (Homo sapiens, UniProt Q16539). The experiment in a line: Kinase selectivity, Table 5: p38α. Particulars: read-out: selectivity data (inhibition), p38α.
A further experiment deals with PDK1 (Homo sapiens, UniProt O15530). In words: Kinase selectivity, Table 5: PDK1. Particulars: read-out: selectivity data (inhibition), PDK1.
A further experiment has as its target EGFR (Homo sapiens, UniProt P00533). In words: Kinase selectivity, Table 5: EGFR. Particulars: read-out: selectivity data (inhibition), EGFR.
Another experiment deals with FGFR1 (Homo sapiens, UniProt P11362). The experiment in a line: Kinase selectivity, Table 5: FGFR1. Particulars: read-out: selectivity data (inhibition), FGFR1.
A further experiment deals with AKT3 (Homo sapiens, UniProt Q9Y243). In words: Kinase selectivity, Table 5: AKT3. Particulars: read-out: selectivity data (inhibition), AKT3.
The next experiment concerns the target FLT3(D835Y) (Homo sapiens, UniProt P36888, D835Y). The experiment in a line: Kinase selectivity, Table 5: FLT3(D835Y). Particulars: read-out: selectivity data (inhibition), FLT3(D835Y).
A further experiment deals with INSR (Homo sapiens, UniProt P06213). In words: Kinase selectivity, Table 5: INSR. Particulars: read-out: selectivity data (inhibition), INSR.
Another experiment has as its target IGF1R (Homo sapiens, UniProt P08069). The experiment in a line: Kinase selectivity, Table 5: IGF1R. Particulars: read-out: selectivity data (inhibition), IGF1R.
The target of a further experiment is MET (Homo sapiens, UniProt P08581). The experiment in a line: Kinase selectivity, Table 5: MET. Particulars: read-out: selectivity data (inhibition), MET.
The next experiment concerns the target FYN (Homo sapiens, UniProt P06241). In words: Kinase selectivity, Table 5: FYN. Particulars: read-out: selectivity data (inhibition), FYN.
The target of the next experiment is AKT2 (Homo sapiens, UniProt P31751). In words: Kinase selectivity, Table 5: AKT2. Particulars: read-out: selectivity data (inhibition), AKT2.
In a further experiment the target is PIM1 (Homo sapiens, UniProt P11309). The experiment in a line: Kinase selectivity, Table 5: PIM1. Particulars: read-out: selectivity data (inhibition), PIM1.
The target in the next experiment is CHK2 (Homo sapiens, UniProt O96017). In words: Kinase selectivity, Table 5: CHK2. Particulars: read-out: selectivity data (inhibition), CHK2.
In a further experiment the target is PDGFRα (Homo sapiens, UniProt P16234). The experiment in a line: Kinase selectivity, Table 5: PDGFRα. Particulars: read-out: selectivity data (inhibition), PDGFRα.
The next experiment concerns the target SYK (Homo sapiens, UniProt P43405). In words: Kinase selectivity, Table 5: SYK. Particulars: read-out: selectivity data (inhibition), SYK.
The target of a further experiment is PKD2 (Homo sapiens, UniProt Q9BZL6). The experiment in a line: Kinase selectivity, Table 5: PKD2. Particulars: read-out: selectivity data (inhibition), PKD2.
The next experiment addresses RSK1 (Homo sapiens, UniProt Q15418). In words: Kinase selectivity, Table 5: RSK1. Particulars: read-out: selectivity data (inhibition), RSK1.
The target of the next experiment is AKT1 (Homo sapiens, UniProt P31749). In words: Kinase selectivity, Table 5: AKT1. Particulars: read-out: selectivity data (inhibition), AKT1.
The next experiment deals with CK1δ (Homo sapiens, UniProt P48730). The experiment in a line: Kinase selectivity, Table 5: CK1δ. Particulars: read-out: selectivity data (inhibition), CK1δ.
The next experiment addresses MAPKAPK2 (Homo sapiens, UniProt P49137). The experiment in a line: Kinase selectivity, Table 5: MAPKAPK2. Particulars: read-out: selectivity data (inhibition), MAPKAPK2.
The target of a further experiment is Erk2 (Homo sapiens, UniProt P28482). The experiment in a line: Kinase selectivity, Table 5: Erk2. Particulars: read-out: selectivity data (inhibition), Erk2.

AKT3, sequence (Q9Y243 whole entry, species assumed): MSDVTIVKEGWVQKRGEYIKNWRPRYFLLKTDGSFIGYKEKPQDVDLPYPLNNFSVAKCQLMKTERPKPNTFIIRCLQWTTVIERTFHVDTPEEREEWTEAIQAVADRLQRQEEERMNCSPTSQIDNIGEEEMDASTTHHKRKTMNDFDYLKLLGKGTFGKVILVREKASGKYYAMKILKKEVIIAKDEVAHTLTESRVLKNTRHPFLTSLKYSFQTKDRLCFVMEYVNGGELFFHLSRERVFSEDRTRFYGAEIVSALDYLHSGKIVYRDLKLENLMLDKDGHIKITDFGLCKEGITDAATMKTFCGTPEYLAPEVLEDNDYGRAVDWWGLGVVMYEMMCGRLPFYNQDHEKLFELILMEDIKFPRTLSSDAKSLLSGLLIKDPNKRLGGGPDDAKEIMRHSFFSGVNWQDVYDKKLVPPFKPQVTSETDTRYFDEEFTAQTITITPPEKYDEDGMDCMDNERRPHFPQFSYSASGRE
FGFR1, sequence (P11362 22-822, species assumed): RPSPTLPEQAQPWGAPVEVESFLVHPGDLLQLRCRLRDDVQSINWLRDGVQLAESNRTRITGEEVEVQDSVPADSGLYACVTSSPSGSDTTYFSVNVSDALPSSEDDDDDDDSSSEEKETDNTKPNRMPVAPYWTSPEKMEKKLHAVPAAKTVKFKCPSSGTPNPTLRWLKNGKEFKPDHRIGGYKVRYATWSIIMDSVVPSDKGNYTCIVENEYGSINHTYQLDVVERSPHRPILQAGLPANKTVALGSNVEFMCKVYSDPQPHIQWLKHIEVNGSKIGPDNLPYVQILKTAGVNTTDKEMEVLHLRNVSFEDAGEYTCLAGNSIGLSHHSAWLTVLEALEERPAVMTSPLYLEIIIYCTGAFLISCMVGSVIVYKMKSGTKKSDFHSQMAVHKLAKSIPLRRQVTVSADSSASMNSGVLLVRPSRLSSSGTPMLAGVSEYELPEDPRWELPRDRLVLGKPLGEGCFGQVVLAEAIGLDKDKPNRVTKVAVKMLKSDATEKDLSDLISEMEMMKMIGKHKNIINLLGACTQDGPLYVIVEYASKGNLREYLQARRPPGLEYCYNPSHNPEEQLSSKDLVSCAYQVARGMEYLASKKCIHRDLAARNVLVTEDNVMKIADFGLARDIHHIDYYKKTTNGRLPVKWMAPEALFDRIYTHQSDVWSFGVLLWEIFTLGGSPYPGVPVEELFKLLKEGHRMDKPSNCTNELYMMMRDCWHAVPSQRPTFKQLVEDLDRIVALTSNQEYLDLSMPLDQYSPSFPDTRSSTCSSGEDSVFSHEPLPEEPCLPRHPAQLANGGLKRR
MET, sequence (P08581 25-1390): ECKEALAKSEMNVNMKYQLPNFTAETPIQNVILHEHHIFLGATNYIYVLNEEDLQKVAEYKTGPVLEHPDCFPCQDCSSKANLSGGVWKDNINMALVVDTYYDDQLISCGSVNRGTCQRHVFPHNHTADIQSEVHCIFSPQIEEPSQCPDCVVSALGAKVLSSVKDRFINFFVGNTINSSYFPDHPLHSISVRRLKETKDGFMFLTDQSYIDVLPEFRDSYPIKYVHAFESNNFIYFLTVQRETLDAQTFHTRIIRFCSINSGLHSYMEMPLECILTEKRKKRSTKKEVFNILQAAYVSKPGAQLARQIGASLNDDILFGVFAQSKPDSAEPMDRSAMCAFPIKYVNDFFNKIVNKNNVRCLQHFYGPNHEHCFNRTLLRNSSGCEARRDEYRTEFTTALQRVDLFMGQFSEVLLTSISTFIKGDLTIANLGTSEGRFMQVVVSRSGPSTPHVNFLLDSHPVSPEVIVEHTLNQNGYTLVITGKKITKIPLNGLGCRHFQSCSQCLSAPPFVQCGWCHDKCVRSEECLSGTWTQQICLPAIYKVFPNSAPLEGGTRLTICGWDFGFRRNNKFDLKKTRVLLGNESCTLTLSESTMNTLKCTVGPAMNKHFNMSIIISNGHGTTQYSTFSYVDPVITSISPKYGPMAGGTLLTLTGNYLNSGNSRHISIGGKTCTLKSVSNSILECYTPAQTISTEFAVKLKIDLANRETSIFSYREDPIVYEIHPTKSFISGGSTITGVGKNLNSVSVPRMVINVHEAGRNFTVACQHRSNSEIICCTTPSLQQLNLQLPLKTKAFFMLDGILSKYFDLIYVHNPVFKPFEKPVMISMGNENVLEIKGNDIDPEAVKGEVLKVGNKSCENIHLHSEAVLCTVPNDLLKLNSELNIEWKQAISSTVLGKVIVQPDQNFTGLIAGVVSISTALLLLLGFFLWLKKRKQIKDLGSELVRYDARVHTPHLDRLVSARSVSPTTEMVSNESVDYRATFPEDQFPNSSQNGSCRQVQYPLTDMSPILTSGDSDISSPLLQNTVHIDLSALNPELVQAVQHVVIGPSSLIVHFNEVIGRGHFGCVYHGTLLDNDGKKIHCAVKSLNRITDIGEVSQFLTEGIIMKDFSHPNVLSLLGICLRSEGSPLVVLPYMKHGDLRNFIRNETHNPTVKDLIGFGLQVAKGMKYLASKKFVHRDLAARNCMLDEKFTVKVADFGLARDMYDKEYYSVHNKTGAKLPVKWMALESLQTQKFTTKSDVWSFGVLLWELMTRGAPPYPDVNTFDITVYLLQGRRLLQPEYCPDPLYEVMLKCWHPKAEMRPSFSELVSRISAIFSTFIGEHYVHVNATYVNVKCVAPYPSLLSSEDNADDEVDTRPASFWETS
CK1δ, sequence (P48730 whole entry): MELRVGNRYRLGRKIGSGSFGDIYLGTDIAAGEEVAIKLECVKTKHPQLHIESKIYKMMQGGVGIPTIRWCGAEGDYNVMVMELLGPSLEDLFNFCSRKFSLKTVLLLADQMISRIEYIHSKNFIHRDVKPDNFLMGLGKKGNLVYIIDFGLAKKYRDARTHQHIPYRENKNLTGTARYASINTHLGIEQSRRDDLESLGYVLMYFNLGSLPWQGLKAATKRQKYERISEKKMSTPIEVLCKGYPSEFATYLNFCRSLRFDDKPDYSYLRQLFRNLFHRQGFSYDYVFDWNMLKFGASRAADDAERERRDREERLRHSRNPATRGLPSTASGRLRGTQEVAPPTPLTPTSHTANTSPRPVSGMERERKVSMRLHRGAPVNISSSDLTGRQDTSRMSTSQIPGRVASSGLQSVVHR
EGFR, sequence (P00533 25-1210, species assumed): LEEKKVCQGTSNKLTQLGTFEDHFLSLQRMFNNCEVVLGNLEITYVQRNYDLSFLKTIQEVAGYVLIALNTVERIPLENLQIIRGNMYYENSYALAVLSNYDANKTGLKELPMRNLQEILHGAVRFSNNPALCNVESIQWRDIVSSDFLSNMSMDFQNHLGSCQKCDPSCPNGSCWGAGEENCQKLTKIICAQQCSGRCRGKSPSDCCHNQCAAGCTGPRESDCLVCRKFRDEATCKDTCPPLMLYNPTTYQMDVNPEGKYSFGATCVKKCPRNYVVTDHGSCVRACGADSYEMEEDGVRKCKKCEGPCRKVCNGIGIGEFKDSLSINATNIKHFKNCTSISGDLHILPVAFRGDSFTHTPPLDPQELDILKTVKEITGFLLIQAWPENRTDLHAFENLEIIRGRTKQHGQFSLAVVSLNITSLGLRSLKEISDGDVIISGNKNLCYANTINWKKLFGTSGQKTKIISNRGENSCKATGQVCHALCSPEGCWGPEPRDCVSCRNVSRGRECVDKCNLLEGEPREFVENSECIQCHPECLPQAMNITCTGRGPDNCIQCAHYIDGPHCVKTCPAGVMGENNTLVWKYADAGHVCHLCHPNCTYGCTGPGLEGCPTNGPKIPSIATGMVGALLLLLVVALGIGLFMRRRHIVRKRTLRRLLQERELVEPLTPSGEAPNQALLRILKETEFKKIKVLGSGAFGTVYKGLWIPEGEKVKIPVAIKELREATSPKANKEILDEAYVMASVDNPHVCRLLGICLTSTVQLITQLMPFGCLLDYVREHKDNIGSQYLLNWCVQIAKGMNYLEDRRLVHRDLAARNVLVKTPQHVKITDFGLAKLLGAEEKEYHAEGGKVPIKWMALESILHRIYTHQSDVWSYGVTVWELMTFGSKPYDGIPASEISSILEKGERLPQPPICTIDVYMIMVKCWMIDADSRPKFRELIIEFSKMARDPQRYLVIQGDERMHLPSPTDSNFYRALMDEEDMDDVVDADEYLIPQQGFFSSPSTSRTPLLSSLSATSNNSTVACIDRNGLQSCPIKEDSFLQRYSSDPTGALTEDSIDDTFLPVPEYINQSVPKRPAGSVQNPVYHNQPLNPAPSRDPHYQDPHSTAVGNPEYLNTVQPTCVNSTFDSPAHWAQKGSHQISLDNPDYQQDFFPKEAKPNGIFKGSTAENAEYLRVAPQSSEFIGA
p38α, sequence (Q16539 whole entry): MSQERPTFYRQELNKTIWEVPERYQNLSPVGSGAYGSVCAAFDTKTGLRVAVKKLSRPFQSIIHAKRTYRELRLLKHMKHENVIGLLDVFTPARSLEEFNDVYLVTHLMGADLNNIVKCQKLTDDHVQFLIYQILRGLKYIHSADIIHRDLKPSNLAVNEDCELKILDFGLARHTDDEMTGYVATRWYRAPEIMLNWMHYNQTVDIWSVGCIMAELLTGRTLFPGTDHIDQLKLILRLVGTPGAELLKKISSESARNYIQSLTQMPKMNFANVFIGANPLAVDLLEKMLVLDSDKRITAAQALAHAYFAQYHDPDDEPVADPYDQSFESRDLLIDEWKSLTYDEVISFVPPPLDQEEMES
PIM1, sequence (P11309 whole entry): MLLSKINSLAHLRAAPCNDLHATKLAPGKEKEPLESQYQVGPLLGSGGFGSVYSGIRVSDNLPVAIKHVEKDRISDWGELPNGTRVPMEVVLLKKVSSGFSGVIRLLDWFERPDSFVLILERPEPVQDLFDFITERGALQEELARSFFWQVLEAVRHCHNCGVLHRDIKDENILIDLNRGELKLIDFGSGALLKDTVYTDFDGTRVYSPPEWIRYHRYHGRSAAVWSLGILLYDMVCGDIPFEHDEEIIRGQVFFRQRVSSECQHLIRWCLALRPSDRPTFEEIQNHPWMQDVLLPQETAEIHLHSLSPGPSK

One may read the inhibition as the change of the read-out against control, counted positive when it falls. Consider `CC(C)c1ccc(C=C2SC(=O)NC2=O)cc1` [5-(4-iso-propylbenzylidene)thiazolidine-2,4-dione], for which the inhibition at 5 µM on PRAK is 4%; on JAK2, 18%; at p38α, 0%; on PDK1, 1%; at EGFR, -3%; at FGFR1 it was 1%. In addition, the inhibition at 5 µM on AKT3 was 3%; on FLT3(D835Y) it was 9%; on INSR, 4%; on IGF1R, -1%; on MET, -6%; on FYN, 0%. Also, the inhibition at 5 µM at AKT2 was -1%; at PIM1 it was 36%; on CHK2 it was 4%; on PDGFRα it was 6%; on SYK it was -3%; at PKD2 it was -3%. In addition, the inhibition at 5 µM was 5% on RSK1; 6% at AKT1; 7% on CK1δ; 5% at MAPKAPK2; -1% at Erk2.
